Here are results for 8 molecules from the supplement of paper PMC11061612.

What all share (assay): Bliss excess, mean over the matrix (fraction); higher = more synergy
Assay [1] deals with A673 (Ewing's Sarcoma). In short, it runs like this:
(§1)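 Cell lines grown in DMEM/F12 or RPMI with 10% FBS were plated in 1536-well plates and held 24 hours at 37°C, 5% CO2 before 72 hours of exposure to two-drug dose matrices, with DMSO typically at 0.2%. CellTiter-Glo 2.0 luminescence gave viability, which was converted to inhibition. Vehicle wells were set to 0 and blank wells to 1. Combination Emax is the second-highest inhibition in the matrix, and Bliss excess is the observed combination effect minus the expected EA + EB − EA·EB, where EA and EB are the single-agent effects.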

Assay [2] relates to BFTC-909 (Kidney Carcinoma). A digest of the protocol: as §1
Assay [3] relates to BPH-1 (Non-Cancerous). In short, it runs like this:
as §1

The test system of assay [4] is ESS-1 (Other Solid Carcinomas). In short, it runs like this:
as §1

Assay [5] has as its system GAMG (Glioblastoma). In short, it runs like this:
as §1

Assay [6] relates to HeLa (Cervical Carcinoma). In short, it runs like this: as §1
The test system of assay [7] is Hs-746T (Gastric Carcinoma). In short, it runs like this: as §1
In assay [8] the test system is HuCCT1 (Biliary Tract Carcinoma). In short, it runs like this:
as §1

Assay [9] concerns KMRC-20 (Kidney Carcinoma). A digest of the protocol:
as §1

Assay [10] concerns KS-1 (Glioblastoma). In short, it runs like this:
as §1

In assay [11] the test system is L-428 (Hodgkin's Lymphoma). In short, it runs like this:
as §1

The test system of assay [12] is LCLC-97TM1 (Non-Small Cell Lung Carcinoma). A digest of the protocol:
as §1

Assay [13] concerns LNZTA3WT4 (Low Grade Glioma). A digest of the protocol: as §1
In assay [14] the test system is LOXIMVI (Melanoma). In short, it runs like this: as §1
Assay [15] relates to NCI-H1568 (Lung Adenocarcinoma). A digest of the protocol: as §1
The test system of assay [16] is NCI-H2722 (Mesothelioma). In short, it runs like this: as §1
Assay [17] has as its system NCI-H524 (Small Cell Lung Carcinoma). In short, it runs like this:
as §1

The subject of assay [18] is OE21 (Esophageal Squamous Cell Carcinoma). A digest of the protocol:
as §1

Assay [19] has as its system SNU-16 (Gastric Carcinoma). In short, it runs like this:
as §1

In assay [20] the test system is WSU-NHL (B-Cell Non-Hodgkin's Lymphoma). A digest of the protocol:
as §1

As for `Cc1cc2ncnn2cc1Nc1ncc2c(n1)n(C1CCOCC1)c(=O)n2C` [AZD7648] + CCN(CCO)CCCOc1ccc2c(Nc3cc(CC(=O)Nc4cccc(F)c4)[nH]n3)ncnc2c1 [AZD2811] (first compound max 10 µM, 7x7, partner max 1 µM), the Bliss excess in assay [1] was -0.0672; in assay [2] it was 0.0076; in [3], 0.0033; in assay [4], 0.128; in assay [5], 0.0192; in [6] it was 0.0511. Besides, the Bliss excess in assay [7] was -0.0291; in assay [8], 0.0401; in [9] it was 0.026; in assay [10] it was -0.0405; in assay [11], 0.0783; in assay [12], 0.0467. Besides, the Bliss excess was 0.0063 in assay [13]; -0.0125 in assay [14]; -0.0172 in [15]; 0.0323 in assay [16]; -0.0043 in [17]; 0.0379 in assay [18]. The values for the Bliss excess in [19] and in assay [20] were 0.0793 and -0.0635, respectively.
For `N#Cc1cnc(Nc2cc(NC[C@H]3CNCCO3)c(C(F)(F)F)cn2)cn1` [SRA737] + O=c1[nH]cc(F)c(=O)[nH]1 [5-Fluorouracil] (first compound max 10 µM, 7x7, partner max 20 µM), the Bliss excess in [1] was 0.0354; in assay [4] it was -0.0297; in assay [5] it was -0.0226; in [8], 0.102; in assay [10] it was -0.0464; in assay [13], -0.0325. The Bliss excess in assay [14] was -0.0241; in [17], 0.0593; in assay [19] it was 0.0632; in assay [20], 0.0005.
With `C[C@@H](c1ccc2nccn2c1)n1nnc2ncc(-c3cnn(C)c3)nc21` [Savolitinib] + CN(CC[C@H](CSC1=CC=CC=C1)NC2=C(C=C(C=C2)S(=O)(=O)NC(=O)C3=CC=C(C=C3)N4CCC(CC4)[C@H](C5=CC=CC=C5C6=CC=C(C=C6)Cl)O)S(=O)(=O)C(F)(F)F)CCO [AZD4320] (first compound max 1 µM, 7x7, partner max 1 µM), the Bliss excess in [2] is -0.0417; in assay [3], -0.0802; in assay [6], -0.0391; in [7], -0.0049; in assay [9], -0.0048; in assay [11], -0.0726. Besides, the Bliss excess was -0.0311 in assay [12], -0.0571 in assay [15], -0.0433 in assay [16] and -0.043 in [18].
Take `N#Cc1cnc(Nc2cc(NC[C@H]3CNCCO3)c(C(F)(F)F)cn2)cn1` [SRA737] + C=CCn1c(=O)c2cnc(Nc3ccc(N4CCN(C)CC4)cc3)nc2n1-c1cccc(C(C)(C)O)n1 [AZD1775] (first compound max 10 µM, partner max 1 µM): the Bliss excess in assay [1] was 0.0914; in [4], 0.12; in assay [5] it was 0.0904; in [8] it was -0.0292; in assay [10], 0.0472; in [13], -0.0108. The Bliss excess in [14] amounted to 0.0086; in assay [17], 0.108; in assay [19], 0.109; in assay [20] it was 0.187.
Consider `Cc1cc2ncnn2cc1Nc1ncc2c(n1)n(C1CCOCC1)c(=O)n2C` [AZD7648] + COc1cc([C@@H]2c3cc4c(cc3[C@@H](O[C@@H]3O[C@@H]5CO[C@@H](C)O[C@H]5[C@H](O)[C@H]3O)[C@H]3COC(=O)[C@H]23)OCO4)cc(OC)c1O [Etoposide] (first compound max 10 µM, 7x7, partner max 10 µM), for which the Bliss excess was found to be 0.111 in assay [1]; 0.113 in [4]; 0.147 in assay [5]; 0.0335 in assay [8]; 0.0894 in assay [10]; 0.102 in assay [13]. For the same molecule, the Bliss excess in [14] was determined as 0.0988; in [17], 0.101; in assay [19] it was 0.0953; in [20] it was 0.0848.
For `N#Cc1cnc(Nc2cc(NC[C@H]3CNCCO3)c(C(F)(F)F)cn2)cn1` [SRA737] + CCc1c2c(nc3ccc(O)cc13)-c1cc3c(c(=O)n1C2)COC(=O)[C@]3(O)CC [SN-38] (first compound max 10 µM, 7x7, partner max 0.3 µM), the Bliss excess in [1] is -0.0511; in assay [4] it was -0.0091; in assay [5], 0.0754; in [8], 0.0261; in [10] it was -0.0798; in assay [13], -0.002. Moreover, the Bliss excess in assay [14] is -0.0354; in assay [17] it was 0.113; in assay [19] it was 0.0524; in [20], -0.0324.
As for `CN(CCO)CC[C@H](CSc1ccccc1)Nc1ccc(S(=O)(=O)NC(=O)c2ccc(N3CCC([C@@H](O)c4ccccc4-c4ccc(Cl)cc4)CC3)cc2)cc1S(=O)(=O)C(F)(F)F` [AZD4320] + CC(=O)O[C@H]1C(=O)[C@@]2(C)[C@H]([C@H](OC(=O)c3ccccc3)[C@]3(O)C[C@H](OC(=O)[C@H](O)[C@@H](NC(=O)c4ccccc4)c4ccccc4)C(C)=C1C3(C)C)[C@]1(OC(C)=O)CO[C@@H]1C[C@@H]2O [Paclitaxel] (first compound max 1 µM, 7x7, partner max 3 µM), the Bliss excess in assay [1] was determined as 0.0654; in assay [4] it was 0.0663; in assay [5], 0.095; in assay [8] it was 0.0276; in assay [10], 0.217; in [13] it was 0.0016. The Bliss excess was found to be 0.0164 in assay [14], 0.0333 in assay [17], 0.0287 in assay [19] and 0.0294 in [20].
Take `COc1nnc2ccc(N3CCC(c4ccc(OCCN5CCN(C)C(=O)[C@H]5C)cc4)CC3)nn12` [AZD5153] + CN(CC[C@H](CSC1=CC=CC=C1)NC2=C(C=C(C=C2)S(=O)(=O)NC(=O)C3=CC=C(C=C3)N4CCC(CC4)[C@H](C5=CC=CC=C5C6=CC=C(C=C6)Cl)O)S(=O)(=O)C(F)(F)F)CCO [AZD4320] (first compound max 1 µM, 7x7, partner max 1 µM): the Bliss excess in [2] is 0.0663; in [3], 0.0728; in assay [6], -0.033; in assay [7] it was 0.0125; in [9], 0.0384; in assay [11], -0.0432. The Bliss excess was -0.0034 in [12], -0.044 in assay [15], 0.0387 in assay [16] and 0.0129 in [18].
